We go through 41 molecules from PubChem BioAssay AID1996.

Converted amounts (≈) assume the structure as drawn.

The conditions of this data set: buffer; pH 7.4; 200.0 µM.
The term kinetic solubility denotes solubility judged after dilution from a stock solution rather than from solid. In the case of `NS(=O)(=O)c1ccc(CCNC(=O)CN2CCN(S(=O)(=O)c3ccccc3F)CC2)cc1`, the kinetic solubility is > 72.7 µg/mL. As for `NC(=O)C1CCN(C(=O)c2cc(-c3ccc(Cl)cc3)nc3ccccc23)CC1`, the kinetic solubility is > 59.1 µg/mL. Turning to `CCN(C(=O)Nc1cccc(Cl)c1)c1ccccc1`, the solubility (kinetic) turned out to be 18.6 µg/mL (≈ 67.7 µM).

Turning to `Cc1ccc(NC(=O)CNC(=O)c2cccs2)nc1`, the kinetic solubility is > 41.3 µg/mL.

For `Cc1ccc(CNCC(O)c2ccccc2)s1.Cl` (stereo unspecified), the solubility (kinetic) was > 42.6 µg/mL. `COc1ccccc1CCC(=O)OCC(=O)NC1CCCC1`: the kinetic solubility is > 45.8 µg/mL. `CC#CC(=O)N1CCCC(C(=O)c2ccc(SC)cc2)C1` (stereo unspecified): the solubility (kinetic) was > 45.2 µg/mL.

In the case of `COc1ccc(C(=O)n2cnc3ccccc32)cc1`, the kinetic solubility is > 37.8 µg/mL. For `CCn1c([N+](=O)[O-])nc2c1c(=O)[nH]c(=O)n2C` the value was > 35.9 µg/mL; for `Nc1ccc(N2CCCCC2)c2nonc12`, > 32.7 µg/mL. In the case of `COCc1cc(OC(=O)N(C)C)nc(-c2ccccc2)n1`, the kinetic solubility was > 43.1 µg/mL. Turning to `CCCc1cc(=O)[nH]c(SCc2ccc(F)cc2)n1`, the kinetic solubility was 3.2 µg/mL (≈ 11.5 µM). Regarding `Cl.c1ccc2c(c1)OCC(C1=NCCN1)O2` (stereo unspecified), the kinetic solubility was > 36.1 µg/mL. On to `CC(C)CCC(CCN1CCCC1)c1ccc2c(c1)OCO2.O=C(O)C(=O)O` (stereo unspecified), for which the solubility (kinetic) was determined as 48.4 µg/mL. Regarding `CCC1CCCCN1C(=O)CSc1nc2ncccc2[nH]1` (stereo unspecified), the kinetic solubility is > 45.7 µg/mL.

As to `Clc1cccc(CN2CCSCC2)c1Cl`, the solubility (kinetic) stood at 1 µg/mL (≈ 3.81 µM).

With `CCOc1ccc(CO/N=C/c2c(C)[nH]c(=O)[nH]c2=O)cc1`, the kinetic solubility stood at 5.8 µg/mL (≈ 19.1 µM). With `CSc1ncccc1C(=O)OCC(=O)N1CCN(C(=O)c2ccco2)CC1`, the kinetic solubility is > 58.4 µg/mL. Turning to `O=C(/C=C/c1ccco1)N1CCN(c2ccc(F)cc2)CC1`, the kinetic solubility worked out at 5.6 µg/mL (≈ 18.6 µM).

As for `COC(=O)c1ccccc1NC(=O)NC1CCCCC1`, the kinetic solubility stood at 2.6 µg/mL (≈ 9.41 µM). This solubility kinetic lies about 2.2-fold lower than the previous one. As to `CNC(=O)Nc1cccc(-c2ccnc(C)n2)c1`, the solubility (kinetic) came to 27.5 µg/mL (≈ 114 µM). Take `O=C(COC(=O)/C=C/c1ccc([N+](=O)[O-])cc1)NCc1ccco1`: the kinetic solubility was determined as 1.5 µg/mL (≈ 4.54 µM).

`CCn1c(O)c(C=NC2CCCC(C)C2C)sc1=S` (stereo unspecified): the kinetic solubility is 4.3 µg/mL (≈ 14.4 µM). The molecule `COc1ccc(C(=O)CC(=O)C(=O)Nc2cccc(C(C)=O)c2)cc1` gave a solubility (kinetic) of 13.9 µg/mL (≈ 41 µM). As for `CN(C(=O)c1ccc2nc(N)sc2c1)c1ccccc1`, the solubility (kinetic) stood at 40.8 µg/mL (≈ 144 µM). The same measure for `Cc1cc(C)n2nc(SCCC(=O)NCc3ccccc3)nc2n1`: > 51.2 µg/mL. For `O=c1[nH]c2ccc(S(=O)(=O)N3CCCC3)cc2[nH]1`, the kinetic solubility is > 40.1 µg/mL. The same measure for `c1cc2c3c(cccc3c1)NC(c1ccc3c(c1)OCO3)N2`: 9.5 µg/mL (≈ 32.7 µM); for `CCN(CC)C(=O)CCS(=O)(=O)c1cccc2nonc12`: 45.2 µg/mL (≈ 145 µM); for `CCC(C(=O)OC)n1c(-c2ccccc2)nc2ccccc2c1=O` (stereo unspecified): 1.5 µg/mL (≈ 4.65 µM).

`Cc1ccc(C(=O)OCC(=O)NCCc2ccc(F)cc2)cc1S(=O)(=O)N1CCOCC1` returned a kinetic solubility of 57.2 µg/mL (≈ 123 µM). For `COCc1nc2ccccc2n1CCc1ccccc1` the value was > 40 µg/mL; for `COC(=O)c1ccccc1NC(=O)c1ccc[nH+]c1.[Cl-]`, > 43.9 µg/mL; for `CN1C(=O)N(c2nnc(C(C)(C)C)s2)C(=O)C1c1ccccc1` (stereo unspecified), > 49.6 µg/mL. Molecule `Cc1cccc(COc2ccc(/C=C3/C(=O)N(C)C(=S)N3C)cc2)c1` came in with a solubility (kinetic) of 5.4 µg/mL (≈ 15.3 µM). On to `COc1cc(OC)cc(C(=O)Nc2ccc(C(=O)Nc3ccccc3OC)cc2)c1`, for which the solubility (kinetic) was determined as 6.4 µg/mL (≈ 15.7 µM). The same measure for `O=C1NN(c2ccc(F)cc2)C(=O)/C1=C/c1cccs1`: > 43.2 µg/mL; for `CC(C)NCC(O)COc1cccc2[nH]ccc12` (stereo unspecified): > 37.2 µg/mL. As to `S=C(NCCc1ccc(Cl)cc1)NCc1ccccc1`, the solubility (kinetic) was determined as 16.7 µg/mL (≈ 54.8 µM). In the case of `CCOc1ccc2oc(C(=O)N3CCCN(C)CC3)c(C)c2c1.Cl`, the kinetic solubility is > 52.9 µg/mL. Take `CC[C@@H]1C(=O)OC[C@@H]1Cc1cncn1C.Cl`: the solubility (kinetic) is > 36.7 µg/mL.
